Data from patent US6737383B1, “Herbicidal oxadiazolidines” (priority 1999, dated 2004).

Tests used:
rice = assay: Test B flood test rice; type: in vivo, Oryza sativa
Outline: (§1)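 Each value is a visual injury score relative to controls, with 10 meaning complete control and 0 no effect. Evaluation took place twelve to sixteen days after the 2-leaf-stage plants were treated and kept in the greenhouse.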

soybean = assay: Test B pre/postemergence soybean; type: in vivo, Glycine max; settings: for Soybean plant response rating: scale of 0 to 10 where 0 is no effect and 10 is complete control
Outline: (§2)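 Herbicidal effect was estimated by eye on a ten-point control scale after plants spent twelve to sixteen days in a greenhouse following soil or foliar treatment. Foliar sprays targeted plants at one to four leaves; all doses were formulated in a non-phytotoxic solvent with surfactant.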

wheat = assay: Test B pre/postemergence wheat; type: in vivo, Triticum aestivum; settings: for Wheat plant response rating: scale of 0 to 10 where 0 is no effect and 10 is complete control
Outline: as §2

bamyardgrass = assay: Test B flood test barnyardgrass; type: in vivo, Echinochloa crus-galli
Outline: as §1

velvetleaf = assay: Test B pre/postemergence velvetleaf; type: in vivo, Abutilon theophrasti; settings: for Velvetleaf plant response rating: scale of 0 to 10 where 0 is no effect and 10 is complete control
Outline: as §2

cocklebur = assay: Test B pre/postemergence cocklebur; type: in vivo, Xanthium strumarium; settings: for Cocklebur plant response rating: scale of 0 to 10 where 0 is no effect and 10 is complete control
Outline: as §2

giant foxtail = assay: Test B pre/postemergence giant foxtail; type: in vivo, Setaria faberii; settings: for Giant foxtail plant response rating: scale of 0 to 10 where 0 is no effect and 10 is complete control
Outline: as §2

pigweed = assay: Test B pre/postemergence pigweed; type: in vivo, Amaranthus retroflexus; settings: for Redroot pigweed plant response rating: scale of 0 to 10 where 0 is no effect and 10 is complete control
Outline: as §2

morningglory = assay: Test B pre/postemergence morningglory; type: in vivo, Ipomoea hederacea; settings: for Morningglory plant response rating: scale of 0 to 10 where 0 is no effect and 10 is complete control
Outline: as §2

blackgrass = assay: Test B pre/postemergence blackgrass; type: in vivo, Alopecurus myosuroides
Outline: as §2

purple nutsedge = assay: Test B pre/postemergence purple nutsedge; type: in vivo, Cyperus rotundus; settings: for Nutsedge plant response rating: scale of 0 to 10 where 0 is no effect and 10 is complete control
Outline: as §2

bedstraw = assay: Test B pre/postemergence bedstraw; type: in vivo, Galium aparine
Outline: as §2

smallflower flatsedge = assay: Test B flood test smallflower flatsedge; type: in vivo, Cyperus difformis
Outline: as §1

wild oat = assay: Test B pre/postemergence wild oat; type: in vivo, Avena fatua; settings: for Wild oats plant response rating: scale of 0 to 10 where 0 is no effect and 10 is complete control
Outline: as §2

crabgrass = assay: Test B pre/postemergence crabgrass; type: in vivo, Digitaria sanguinalis; settings: for Crabgrass plant response rating: scale of 0 to 10 where 0 is no effect and 10 is complete control
Outline: as §2

surinam grass = assay: Test B pre/postemergence surinam grass; type: in vivo, Brachiaria decumbens
Outline: as §2

[1] = Rate 62 g/ha, headed Pre-emergence (flood test species), scale 0 to 10 (0 no effect, 10 complete control)
[2] = Rate 125 g/ha, Pre-emergence, flood test species, scale 0 to 10 where 0 is no effect and 10 is complete control
[3] = Rate 250 g/ha, Pre-emergence, flood-test species, scale 0 to 10, 0 is no effect, 10 is complete control
[4] = Rate 500 g/ha, Pre-emergence, flood test species, scale 0 to 10 (0 no effect, 10 complete control)
[5] = Postemergence, Rate 125 g/ha, scale 0 to 10, 0 is no effect, 10 is complete control
[6] = Rate 500 g/ha, Postemergence, scale 0 to 10, 0 no effect, 10 complete control
[7] = Preemergence, Rate 62 g/ha, scale of 0 to 10 where 0 is no effect and 10 is complete control
[8] = Preemergence, Rate 250 g/ha, scale of 0 to 10 where 0 is no effect and 10 is complete control
[9] = Preemergence, Rate 500 g/ha, scale of 0 to 10 where 0 is no effect and 10 is complete control
[10] = Rate 62 g/ha, Postemergence, scale of 0 to 10 where 0 is no effect and 10 is complete control
[11] = Rate 250 g/ha, Postemergence, scale of 0 to 10 where 0 is no effect and 10 is complete control

Compound: CC(C)N(C(=O)n1oc(=O)n(C2CCCCCC2)c1=O)c1ccc(F)cc1 [Compound 340]
- Rice plant response rating (rice; [1]): 0
- Rice plant response rating (rice; [2]): 0
- Rice plant response rating (rice; [3]): 0
- Rice plant response rating (rice; [4]): 0
- Plant response rating, Soybean (soybean; [5]): 2
- Soybean plant response rating (soybean; Preemergence, Rate 62 g/ha): 0
- Soybean plant response rating (0 to 10 scale) (soybean; Preemergence, Rate 125 g/ha): 0
- Soybean plant response rating (soybean; Preemergence, Rate 250 g/ha): 0
- Soybean plant response rating (soybean; Preemergence, Rate 500 g/ha): 0
- Soybean plant response rating (soybean; Rate 62 g/ha, Postemergence): 1
- Plant response rating, Soybean (soybean; [6]): 3
- Plant response rating, Wheat (wheat; [5]): 0
- Wheat plant response rating (wheat; Preemergence, Rate 62 g/ha): 0
- Wheat plant response rating (0 to 10 scale) (wheat; Preemergence, Rate 125 g/ha): 0
- Wheat plant response rating (wheat; Preemergence, Rate 250 g/ha): 0
- Wheat plant response rating (wheat; Preemergence, Rate 500 g/ha): 0
- Wheat plant response rating (wheat; Rate 62 g/ha, Postemergence): 0
- Plant response rating, Wheat (wheat; [6]): 0
- Barnyardgrass plant response rating (bamyardgrass; [1]): 7
- Barnyardgrass plant response rating (bamyardgrass; [2]): 6
- Barnyardgrass plant response rating (bamyardgrass; [3]): 10
- Barnyardgrass plant response rating (bamyardgrass; [4]): 9
- Plant response rating, Velvetleaf (velvetleaf; [5]): 0
- Velvetleaf plant response rating (velvetleaf; Preemergence, Rate 62 g/ha): 0
- Velvetleaf plant response rating (0 to 10 scale) (velvetleaf; Preemergence, Rate 125 g/ha): 0
- Velvetleaf plant response rating (velvetleaf; Preemergence, Rate 250 g/ha): 0
- Velvetleaf plant response rating (velvetleaf; Preemergence, Rate 500 g/ha): 2
- Velvetleaf plant response rating (velvetleaf; Rate 62 g/ha, Postemergence): 0
- Plant response rating, Velvetleaf (velvetleaf; [6]): 3
- Plant response rating, Cocklebur (cocklebur; [5]): 0
- Cocklebur plant response rating (cocklebur; Preemergence, Rate 62 g/ha): 0
- Cocklebur plant response rating (0 to 10 scale) (cocklebur; Preemergence, Rate 125 g/ha): 0
- Cocklebur plant response rating (cocklebur; Preemergence, Rate 250 g/ha): 0
- Cocklebur plant response rating (cocklebur; Preemergence, Rate 500 g/ha): 0
- Cocklebur plant response rating (cocklebur; Rate 62 g/ha, Postemergence): 0
- Plant response rating, Cocklebur (cocklebur; [6]): 0
- Plant response rating, Giant foxtail (giant foxtail; [5]): 0
- Giant foxtail plant response rating (giant foxtail; Preemergence, Rate 62 g/ha): 8
- Giant foxtail plant response rating (0 to 10 scale) (giant foxtail; Preemergence, Rate 125 g/ha): 10
- Giant foxtail plant response rating (giant foxtail; Preemergence, Rate 250 g/ha): 10
- Giant foxtail plant response rating (giant foxtail; Preemergence, Rate 500 g/ha): 10
- Giant foxtail plant response rating (giant foxtail; Rate 62 g/ha, Postemergence): 0
- Plant response rating, Giant foxtail (giant foxtail; [6]): 6
- Plant response rating, Redroot pigweed (pigweed; [5]): 4
- Redroot pigweed plant response rating (pigweed; Preemergence, Rate 62 g/ha): 0
- Redroot pigweed plant response rating (0 to 10 scale) (pigweed; Preemergence, Rate 125 g/ha): 0
- Redroot pigweed plant response rating (pigweed; Preemergence, Rate 250 g/ha): 3
- Redroot pigweed plant response rating (pigweed; Preemergence, Rate 500 g/ha): 4
- Redroot pigweed plant response rating (pigweed; Rate 62 g/ha, Postemergence): 2
- Plant response rating, Morningglory (morningglory; [5]): 7
- Morningglory plant response rating (morningglory; Preemergence, Rate 62 g/ha): 0
- Morningglory plant response rating (0 to 10 scale) (morningglory; Preemergence, Rate 125 g/ha): 0
- Morningglory plant response rating (morningglory; Preemergence, Rate 250 g/ha): 0
- Morningglory plant response rating (morningglory; Preemergence, Rate 500 g/ha): 0
- Morningglory plant response rating (morningglory; Rate 62 g/ha, Postemergence): 2
- Plant response rating, Morningglory (morningglory; [6]): 10
- Plant response rating, Blackgrass (blackgrass; [5]): 0
- Blackgrass plant response rating (blackgrass; [7]): 0
- Blackgrass plant response rating (0 to 10 scale) (blackgrass; Preemergence, Rate 125 g/ha): 2
- Blackgrass plant response rating (blackgrass; [8]): 3
- Blackgrass plant response rating (blackgrass; [9]): 8
- Blackgrass plant response rating (blackgrass; [10]): 0
- Plant response rating, Blackgrass (blackgrass; [11]): 3
- Plant response rating, Blackgrass (blackgrass; [6]): 8
- Plant response rating, Nutsedge (purple nutsedge; [5]): 0
- Nutsedge plant response rating (purple nutsedge; Preemergence, Rate 62 g/ha): 0
- Nutsedge plant response rating (0 to 10 scale) (purple nutsedge; Preemergence, Rate 125 g/ha): 0
- Nutsedge plant response rating (purple nutsedge; Preemergence, Rate 250 g/ha): 0
- Nutsedge plant response rating (purple nutsedge; Preemergence, Rate 500 g/ha): 0
- Nutsedge plant response rating (purple nutsedge; Rate 62 g/ha, Postemergence): 0
- Plant response rating, Nutsedge (purple nutsedge; [6]): 0
- Plant response rating, Bedstraw (bedstraw; [5]): 7
- Bedstraw plant response rating (bedstraw; [7]): 0
- Bedstraw plant response rating (0 to 10 scale) (bedstraw; Preemergence, Rate 125 g/ha): 0
- Bedstraw plant response rating (bedstraw; [9]): 5
- Bedstraw plant response rating (bedstraw; [10]): 3
- Plant response rating, Bedstraw (bedstraw; [11]): 7
- Plant response rating, Bedstraw (bedstraw; [6]): 8
- S. Flatsedge plant response rating (smallflower flatsedge; [1]): 0
- S. Flatsedge plant response rating (smallflower flatsedge; [2]): 0
- S. Flatsedge plant response rating (smallflower flatsedge; [3]): 2
- S. Flatsedge plant response rating (smallflower flatsedge; [4]): 9
- Plant response rating, Wild oats (wild oat; [5]): 0
- Wild oats plant response rating (wild oat; Preemergence, Rate 62 g/ha): 0
- Wild oats plant response rating (0 to 10 scale) (wild oat; Preemergence, Rate 125 g/ha): 0
- Wild oats plant response rating (wild oat; Preemergence, Rate 250 g/ha): 2
- Wild oats plant response rating (wild oat; Preemergence, Rate 500 g/ha): 3
- Wild oats plant response rating (wild oat; Rate 62 g/ha, Postemergence): 0
- Plant response rating, Wild oats (wild oat; [6]): 0
- Plant response rating, Crabgrass (crabgrass; [5]): 0
- Crabgrass plant response rating (crabgrass; Preemergence, Rate 62 g/ha): 0
- Crabgrass plant response rating (0 to 10 scale) (crabgrass; Preemergence, Rate 125 g/ha): 3
- Crabgrass plant response rating (crabgrass; Preemergence, Rate 250 g/ha): 8
- Crabgrass plant response rating (crabgrass; Preemergence, Rate 500 g/ha): 9
- Crabgrass plant response rating (crabgrass; Rate 62 g/ha, Postemergence): 0
- Plant response rating, Crabgrass (crabgrass; [6]): 2
- Plant response rating, B. signalgrass (surinam grass; [5]): 0
- B. signalgrass plant response rating (surinam grass; [7]): 0
- B. signalgrass plant response rating (0 to 10 scale, 0 is no effect, 10 is complete control) (surinam grass; Preemergence, Rate 125 g/ha): 0
- B. signalgrass plant response rating (surinam grass; [8]): 1
- B. signalgrass plant response rating (surinam grass; [9]): 2
- B. signalgrass plant response rating (surinam grass; [10]): 0
- Plant response rating, B. signalgrass (surinam grass; [11]): 0
- Plant response rating, B. signalgrass (surinam grass; [6]): 0
